Tested on: DU-145 cells
Assay: Cell invasion, Transwell chambers with Matrigel, DU-145 cells
Assay type: cell-based, human
Conditions: DHMBA 1, 10, or 100 μM, 24 hours
Protocol: The cell invasion activity of the prostate cancer PC-3 and DU-145 cells was measured using Transwell chambers (the catalogue number CLS3464-48EA of Corning, Life Sciences, USA). A chamber was placed in each well of the 24-hole plate. 50 μl of Matrigel (Corning Life Sciences, Cat. No. 356230, USA) was added to the upper surface of the chambers. After drying the gel, 500 μl of a suspension of the PC-3 or DU-145 cells (the cell number of 2.5×10^4/ml, the DMEM not containing FBS) was added to the upper surface of the gel. This cell suspension contained the DHMBA (0, 1, 10, or 100 μM). After the addition of the cell suspension to the chambers, it was incubated for one hour to cause the cells to adhere. 0.75 ml of the culture fluid not containing the FBS and a culture fluid containing 10% of FBS were added to the lower surface of the chambers. The cells on the plate were cultured under 5% of CO2, 95% of air, at 37° C., for 24 hours. […] After the drying, the number of the stained cells was counted by the microscope (Olympus MTV-3, Olympus Corporation, Tokyo, Japan). […]
The cell invasion activities of the prostate cancer PC-3 and DU-145 cells were measured using the Transwell chambers. […] After the drying, the number of the stained cells was counted by the microscope (Olympus MTV-3, Olympus Corporation, Tokyo, Japan). […]

SMILES: COc1c(O)cc(CO)cc1O [DHMBA, 3,5-dihydroxy-4-methoxybenzyl alcohol]
- invasion: significantly inhibited
